Test results from ChEMBL document CHEMBL1201862, “PubChem BioAssay data set” (2004).
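The compound was tested at five concentrations on cells cultured in 96-well plates, with a 48-hour exposure period. Here, GI50 denotes the concentration required for 50% inhibition of growth.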 Active and inactive are the calls of the source. Rule as the data show it: active = GI50 up to about 1.1 µM and inactive = higher.

Legend:
Assay in all cases: DTP human tumour cell line panel, 48 h
[1] = system: IGROV-1
[2] = system: TK-10
[3] = system: MOLT-4
[4] = system: CCRF-CEM
[5] = system: RPMI-8226
[6] = system: HOP-92
[7] = system: K562
[8] = system: HL-60
[9] = system: OVCAR-4
[10] = system: HCT-15
[11] = system: SNB-19
[12] = system: LOX IMVI
[13] = system: SK-OV-3
[14] = system: U-251
[15] = system: OVCAR-8
[16] = system: RXF 393
[17] = system: M14
[18] = system: NCI-H460
[19] = system: NCI-H23
[20] = system: SN12C

Row | SMILES | GI50 [1] | GI50 [2] | GI50 [3] | GI50 [4] | GI50 [5] | GI50 [6] | GI50 [7] | GI50 [8] | GI50 [9] | GI50 [10] [µM] | GI50 [11] | GI50 [12] | GI50 [13] | GI50 [14] | GI50 [15] | GI50 [16] | GI50 [17] | GI50 [18] | GI50 [19] | GI50 [20]
1 | O=c1ccn(COC(COCc2ccccc2)COCc2ccccc2)c(=O)[nH]1 | > 100 µM (inactive) | > 100 µM (inactive) | 24.2 µM (inactive) | > 100 µM (inactive) | > 100 µM (inactive) | > 100 µM (inactive) | > 100 µM (inactive) | 85.7 µM (inactive) | > 100 µM (inactive) | > 100 | > 100 µM (inactive) | > 100 µM (inactive) | > 100 µM (inactive) | > 100 µM (inactive) | > 100 µM (inactive) | > 100 µM (inactive) | > 100 µM (inactive) | > 100 µM (inactive) | > 100 µM (inactive) | > 100 µM (inactive)
2 | O=C(O)C1CCCCN1c1ccccc1[N+](=O)[O-] (stereo not given) | > 100 µM (inactive) | > 100 µM (inactive) | > 100 µM (inactive) | > 100 µM (inactive) | > 100 µM (inactive) | > 100 µM (inactive) | > 100 µM (inactive) | > 100 µM (inactive) | > 100 µM (inactive) | > 100 | > 100 µM (inactive) | > 100 µM (inactive) | > 100 µM (inactive) | > 100 µM (inactive) | > 100 µM (inactive) | > 100 µM (inactive) | > 100 µM (inactive) | > 100 µM (inactive) | > 100 µM (inactive) | > 100 µM (inactive)
3 | CCOC(=O)NC(Nc1ncccn1)(C(=O)OCC)C(F)(F)F (stereo not given) | > 100 µM (inactive) | > 100 µM (inactive) | > 100 µM (inactive) | > 100 µM (inactive) | > 100 µM (inactive) | > 100 µM (inactive) | > 100 µM (inactive) | > 100 µM (inactive) | > 100 µM (inactive) | > 100 | > 100 µM (inactive) | > 100 µM (inactive) | > 10 µM (inactive) | > 100 µM (inactive) | > 100 µM (inactive) | > 100 µM (inactive) | > 100 µM (inactive) | > 100 µM (inactive) | > 100 µM (inactive) | > 100 µM (inactive)
4 | O=C=C=P(c1ccccc1)(c1ccccc1)c1ccccc1 | 41.9 µM (inactive) | 3.46 µM (inactive) | 55.8 µM (inactive) | 76 µM (inactive) | 27.3 µM (inactive) | 16.1 µM (inactive) | 27 µM (inactive) | 11.1 µM (inactive) | 61.2 µM (inactive) | > 100 | > 100 µM (inactive) | 40.1 µM (inactive) | 48.3 µM (inactive) | 72.1 µM (inactive) | 72.6 µM (inactive) | 92.5 µM (inactive) | 80.5 µM (inactive) | 86.9 µM (inactive) | 31.3 µM (inactive) | > 100 µM (inactive)
5 | COc1ccc(C[C@H](N)C(=O)N2C[C@H](CO)C[C@H](n3ccc(=O)[nH]c3=O)C2)cc1 | > 100 µM (inactive) | > 100 µM (inactive) | > 100 µM (inactive) | > 100 µM (inactive) | > 100 µM (inactive) | > 100 µM (inactive) | > 100 µM (inactive) | 58.3 µM (inactive) | > 100 µM (inactive) | > 100 | > 100 µM (inactive) | > 100 µM (inactive) | > 100 µM (inactive) | > 100 µM (inactive) | > 100 µM (inactive) | > 100 µM (inactive) | > 100 µM (inactive) | > 100 µM (inactive) | > 100 µM (inactive) | > 100 µM (inactive)
6 | COC(=O)C1C(C)N1C (stereo not given) | > 100 µM (inactive) | > 100 µM (inactive) | > 100 µM (inactive) | > 100 µM (inactive) | > 100 µM (inactive) | > 100 µM (inactive) | > 100 µM (inactive) | > 100 µM (inactive) | > 100 µM (inactive) | > 100 | > 100 µM (inactive) | > 100 µM (inactive) | > 100 µM (inactive) | > 100 µM (inactive) | > 100 µM (inactive) | > 100 µM (inactive) | > 100 µM (inactive) | > 100 µM (inactive) | > 100 µM (inactive) | > 100 µM (inactive)
